Laboratory results as given in patent publication US4863905A, “Renin inhibitors II” (Warner-Lambert Company, priority 1987, dated 1989).
pIC50: −log10 of the molar value.

Biological target: T1, renin (Homo sapiens, UniProt P00797)
T1 sequence (P00797 67-406): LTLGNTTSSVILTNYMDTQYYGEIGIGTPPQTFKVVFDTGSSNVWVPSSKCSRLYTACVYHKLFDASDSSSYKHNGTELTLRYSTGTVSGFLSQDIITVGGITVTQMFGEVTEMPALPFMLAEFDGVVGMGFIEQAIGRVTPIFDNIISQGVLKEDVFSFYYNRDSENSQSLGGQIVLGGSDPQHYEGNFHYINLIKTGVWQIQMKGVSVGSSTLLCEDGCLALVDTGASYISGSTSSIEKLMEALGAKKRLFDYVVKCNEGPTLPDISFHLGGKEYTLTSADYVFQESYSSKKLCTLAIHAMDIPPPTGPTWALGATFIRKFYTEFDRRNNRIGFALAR
Assay: in vitro renin inhibitory activity, radioimmunoassay for angiotensin I
Type: biochemical
Details: renin incubated two hours at 37° with substrate angiotensinogen, angiotensin I by radioimmunoassay, molar concentration causing 50% inhibition
Experimental: The effectiveness of the aforementioned compound is determined by a test for in vitro renin inhibitory activity. This activity is determined by a standard radioimmunoassay for angiotensin I. In this assay the enzyme, renin, incubated for two hours at 37° in the presence of a substrate, angiotensinogen, generates the product, angiotensin I. Test compounds are added to the incubation mixture. Relative activity is reported as the IC50, which is the molar concentration of test compound causing a 50% inhibition of the renin activity.

Substance | pIC50 | pIC50 (listed as DNMAHIS STA[CHOHCH2 ]CH2 Ph (ISOMER))
DNMA--HIS--CYCLOHEXYLALA[CHOHCH2 ](CH2)2 CH(CH3)2 [Example 5] | 5.74 | –
DNMA--HIS--CYCLOHEXYLALA[CHOHCH2 ]GLY--LEU--NHCH2 Ph [Example 11] | 5.19 | –
DNMA--HIS--CYCLOHEXYLALA[CHOHCH2 ]GLY--NHCH2 CH(CH3)--CH2 CH3 [Example 16] | 6.60 | –
DNMA--HIS--CYCLOHEXYLALA[CHOHCH2 ]GLY--NHCH2 Ph [Example 17] | 5.47 | –
DNMA--HIS--CYCLOHEXYLALA[CHOHCH2 ]LEU--NHCH2 CH(CH3)--CH2 CH3 [Example 15] | 6.77 | –
DNMA--HIS--CYCLOHEXYLALA[CHOHCH2 ]LEU--NHCH2 Ph [Example 14] | 5.36 | –
DNMA--HIS--CYCLOHEXYLALA[CHOHCHOH]CH2 OH [Example 7] | 6.55 | –
DNMA--HIS--LEU[CHOHCH2 ]SO2 NHCH2 CH2 Ph [Example 1] | 4.92 | –
DNMA--HIS--STA[CH2 NH]CH2 CH(CH3)CH2 CH3 [Example 10] | 5.06 | –
DNMA--HIS--STA[CH2 SO2 ](CH2)3 CH3 [Example 4] | 6.80 | –
DNMA--HIS--STA[CHOHCH2 ]CH2 Ph [Example 18] | 4.92 | –
DNMA--HIS--STA[CHOHCH2 ]CH2 Ph [Example 19] | – | 5.85
DNMA--HIS[CH2 NH]STA--NHCH2 CH(CH3)CH2 CH3 [Example 8] | 4.80 | –
DNMA[CHOHCH2 ]LEU--STA--NHCH2 CH(CH3)CH2 CH3 [Example 20] | 5.72 | –
